This note sets out measurements from patent publication US20220160712A1, “METHODS OF TREATING RHEUMATOID ARTHRITIS AND FOR PREDICTING THE RESPONSE TO METHOTREXATE” (CHAN ZUCKERBERG BIOHUB, INC., priority 2020, published 2022).

This assay deals with complex human gut microbial community. The experiment in a line: Ex vivo incubation of RA patient stool samples with MTX. Type of assay: cell-based. As to the method:
All work was carried out in an anaerobic chamber. For each patient, stool was aliquoted into a pre-equilibrated cryovial, diluted in reduced PBS at 10 ml per 1 gram of stool, and vortexed to homogenize the sample. The sample was spun at ˜20 g for 1 minute on a mini-centrifuge to facilitate settling of sediment, and the sediment-free supernatant was then aliquoted into a new pre-equilibrated cryovial for evaluation of ex vivo growth. Growth was evaluated by inoculating liquid BHI with 1:50 dilution of this fecal slurry, with OD600 readings performed every 15 minutes for 48 hours with a 2-minute shake prior to each reading. Samples were treated with MTX 100 μg/ml or an equal volume of DMSO at time zero. Each patient's fecal slurry and treatment was evaluated in quadruplicate. Samples from four individuals (Donors 2, 4, 5, and 6) underwent 16S sequencing and analysis at 0 and 24 hours after of treatment with either DMSO or MTX treatments (4 replicates per treatment group) as described in the section titled “16S-seq of humanized mouse gut microbiota.”
Reads that were not already demultiplexed were demultiplexed using QIIME (Caporaso et al., 2010) v1.9.1 (split_libraries_fastq.py). For all reads except NYU RA patient samples, QIIME2 (Bolyen et al., 2019)(v 2020.2) was used to trim reads, denoise the data, and create a feature table using the following commands: qiime cutadapt trim-paired, qiime dada2 denoise-paired, qiime feature-table filter-samples. Within QIIME2, taxonomy was assigned using the DADA2 et al., (2016), Nat Methods 13, 581-583) implementation of the RDP Naïve Bayesian classifier (Wang, Q., et al., (2007), Appl Environ Microbiol 73, 5261-5267) using the DADA2-formatted SILVA v128 training set; taxonomic assignments to the species level were chosen by exact match of the ASV to the reference database, and where multiple matches were present, all are reported. For figures and in the text, genus and species assignments are reported when available, and when neither was available, the family taxonomic assignment was included; a unique ASV identifier is also reported. This ASV identifier can be used to look up the full taxonomic assignment from kingdom to species and the associated sequence variant in Table S2B. A phylogenetic tree was constructed in QIIME2 using the command: phylogeny align-to-tree-mafft-fasttree. The QIIME2R package was used to import QIIME2 artefacts into R (https://github.com/jbisanz/qiime2R). For RA patient samples from NYU, reads were demultiplexed using QIIME (Caporaso et al., 2010) v1.9.1 (split_libraries_fastq.py) before denoising and processing with DADA2 (Callahan et al., 2016a) v1.1.5 under MRO v3.2.5. Taxonomy was assigned using the DADA2 implementation of the RDP classifier (Wang et al., 2007) using the DADA2-formatted SILVA v128 training set (benjjneb.github.io/dada2/assign.html). Low abundance taxa were filtered out […] as well as ASVs that could not be assigned taxonomy past the kingdom level. Diversity metrics were generated using Vegan (v2.5-6) and Phyloseq (v1.30.0) (McMurdie, P.J., and Holmes, S. (2013), PLoS One 8, e61217), with principal coordinate analysis (PCoA) or principal components analysis (PCA) carried out with Ape (v5.3) or Vegan, respectively. Analyses were carried out on either: (1) centered log2-ratio (clr) normalized taxonomic abundances calculated as Aclr=[log2(A1/ga), log2(A2/ga), . . . log2(An/ga),], where A is a vector of non-zero read counts and ga is the geometric mean of all values of A, or (2) relative abundance calculated as proportion of reads. ANOSIM and PERMANOVA were used to detect changes in community composition using counts from rarefied data and Bray-Curtis distances. DESeq2 (v1.26.0) (Love, M. I., et al., (2014), Genome Biol 15, 550) was used to determine differentially abundant taxa on raw count data. Some ASVs were reported to have log2 fold changes that were 20 or higher. […]

The mark [1] stands for this setting: MTX 100 μg/ml, 24 hours, 4 ex vivo communities, padj<0.01.

SMILES strings stand for the structures.

Regarding `CN(Cc1cnc2nc(N)nc(N)c2n1)c1ccc(C(=O)N[C@@H](CCC(=O)O)C(=O)O)cc1` [MTX, methotrexate], the “number of genera with significant shifts in abundance” value (MTX 100 μg/ml) came to 17. In addition, under setting [1], the Actinobacteria abundance entry was “increased” and the Bacteroidetes abundance entry was “decreased”. Also, under “MTX 100 μg/ml, 48 hours”, the lag phase entry is “significant delay”. Also, under “MTX 100 μg/ml, 48 hours, p=1.9×10-6, paired Student's t-test”, the carrying capacity result is recorded as “significant decrease”. The “richness (16S-seq of endpoint samples)” value (MTX 100 μg/ml, 4 patient samples) is “significant decrease”. Further, where the note is “MTX 100 μg/ml, padj<0.01, DESeq”, the “number of ASVs with significant shifts in abundance” value amounted to 20. Besides, where the note is “stool of 30 MTX-naive patients, MTX 100 μg/ml vs vehicle, 48 hours”, the “growth of complex microbial communities” value is “significantly impaired”.
